The source of these data is patent US20040109896A1, “Aqueous suspension eyedrops and process for producing the same” (priority 2001, published 2004).

Series [1] in a line: Laser diffraction particle size distribution analysis of acyclovir fine crystals. In kind it is physicochemical. The following applies: USP grade sterilized acyclovir fine crystals. The protocol: USP grade, sterilized acyclovir was used as fine crystals of acyclovir without any processing. Through laser diffraction particle size distribution analysis, the crystals were determined to have an average particle size of 25.9 μm.

Another series deals with herpes virus. Conditions: Crumpaker et al., Antimicrob. Agents Chemother. 15, 642 (1979); cited from earlier work.

`Nc1nc2c(ncn2COCCO)c(=O)[nH]1` [acyclovir, 9-[(2-hydroxyethoxy)methyl]guanine] showed an average particle size in series [1] of 25.9 μm. In addition, in the series on herpes virus, the “ID50 (50% inhibition level) of acyclovir against herpes virus” value is listed as “approximately 0.03 μg/mL”.
